We go through 11 molecules from patent US20260048051A1, “TREATMENT OF INFLAMMATORY BOWEL DISEASE” (Atomwise Inc., priority 2024, published 2026).

T1 sequence (P29597 589-875 limits assumed): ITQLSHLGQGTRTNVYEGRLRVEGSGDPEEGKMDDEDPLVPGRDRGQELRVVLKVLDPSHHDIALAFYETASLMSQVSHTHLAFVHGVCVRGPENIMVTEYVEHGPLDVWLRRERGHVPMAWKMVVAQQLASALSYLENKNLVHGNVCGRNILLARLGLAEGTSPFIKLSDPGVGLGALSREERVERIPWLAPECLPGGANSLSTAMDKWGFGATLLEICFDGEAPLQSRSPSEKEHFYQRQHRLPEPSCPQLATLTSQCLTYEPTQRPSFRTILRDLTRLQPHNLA

The test concerns the target T1, TYK2-JH2 (Homo sapiens, UniProt P29597).
T1 construct: TYK JH2 enzyme mix (ChemPartner: CP20210818A-BV); purchased ChemPartner CP20210818A-BV
In words: TYK2-JH2 HTRF binding assay (ligand efficiency). As to conditions: calculated from binding-assay IC50 (Equation 1). The method, then:
The following example describes the TYK2-JH2 HTRF binding assay used to determine the ligand efficiency of the TYK2 inhibitors.
To calculate ligand efficiency, Equation 1 is applied: […]
in which IC50 comes from the binding assay used to determine compound potency.
TYK JH2 enzyme mix (ChemPartner: CP20210818A-BV), tracer (ChemPartner: CP-0029472-051) and mAb Anti-6HIS Tb cryptate Gold (Cisbio: Cat No. 61HI2TLA) mix were prepared in assay buffer (10 mM MgCl2, 20 mM HEPES pH 7.5, 0.01% Triton X-100, 1 mM DTT). Compounds diluted in DMSO (Final Concentrations 0.1 to 0.000005 [μM]) and enzyme mix (0.5 nM Final Concentration) were added to 384 well plates, briefly centrifuged and incubated at room temperature for 10 minutes. After incubation, tracer mix (Tracer-35 nM final concentration); (MAb Anti-6HIS Tb cryptate Gold-0.5× final)) was added, briefly centrifuged then incubate at room temperature 60 minutes. After incubation, plates were read by Envision TR-FRET (Ex340/Em495/520) protocol (PerkinElmer-Envision 2104 multilabel plate reader).
In the case of `COc1ccc(Nc2cc(NC(=O)C3CC3)ncn2)c(C(N)=O)c1` [Compound 70, 2-((6-(cyclopropanecarboxamido)pyrimidin-4-yl)amino)-5-methoxy benzamide], the “Ligand Efficiency” value was “††† (†††: >0.39)”.
As for `Cc1cccc(Nc2cc(Nc3ncccc3CS(C)(=O)=O)ncn2)n1` [Compound 71, N^4-(6-methylpyridin-2-yl)-N^6-(3-((methylsulfonyl)methyl)pyridin-2-yl)pyrimidine-4,6-diamine], the “Ligand Efficiency” value was “††† (†††: >0.39)”.
Then `Cn1cc(-c2ccnc(Nc3cc(Nc4ccc(NC5(C)COC5)cn4)ncn3)c2S(C)(=O)=O)cn1` [Compound 72, N^4-(4-(1-methyl-1H-pyrazol-4-yl)-3-(methylsulfonyl)pyridin-2-yl)-N^6-(5-(3-methyloxetan-3-ylamino)pyridin-2-yl)pyrimidine-4,6-diamine], with “† (†: < 0.37)”.
As to `CC1(Nc2ccc(Nc3cc(Nc4ncccc4S(C)(=N)=O)ncn3)nc2)COC1` (centres unmarked) [Compound 73, N^4-(5-((3-methyloxetan-3-yl)amino)pyridin-2-yl)-N^6-(3-(S-methylsulfonimidoyl)pyridin-2-yl)pyrimidine-4,6-diamine], the “Ligand Efficiency” value was “††† (†††: >0.39)”.
In the case of `CC1(Nc2cnc(Nc3cc(Nc4ncccc4S(C)(=O)=O)ncn3)cn2)COC1` [Compound 74, N^4-(5-(3-methyloxetan-3-ylamino)pyrazin-2-yl)-N^6-(3-(methylsulfonyl)pyridin-2-yl)pyrimidine-4,6-diamine] it was “††† (†††: >0.39)”.
As to `CC(c1ccc(Nc2ncnc(Nc3ncccc3S(C)(=O)=O)c2F)nc1)N1CC2(COC2)C1` (centres unmarked) [Compound 75, N^4-(5-(1-(2-oxa-6-azaspiro[3.3]heptan-6-yl)ethyl)pyridin-2-yl)-5-fluoro-N^6-(3-(methylsulfonyl)pyridin-2-yl)pyrimidine-4,6-diamine], the “Ligand Efficiency” value was “† (†: < 0.37)”.
Then `COc1ccnc(Nc2cc(Nc3ccc(C(C)N4CC5(COC5)C4)cn3)ncn2)c1S(C)(=O)=O` (centres unmarked) [Compound 76, N^4-(5-(1-(2-oxa-6-azaspiro[3.3]heptan-6-yl)ethyl)pyridin-2-yl)-N^6-(4-methoxy-3-(methylsulfonyl)pyridin-2-yl)pyrimidine-4,6-diamine], with “† (†: < 0.37)”; and `Cc1cc(Nc2cc(Nc3ncccc3S(C)(=O)=O)ncn2)nnc1C(C)N1CC2(COC2)C1` (centres unmarked) [Compound 77, N^4-(6-(1-(2-oxa-6-azaspiro[3.3]heptan-6-yl)ethyl)-5-methylpyridazin-3-yl)-N^6-(3-(methylsulfonyl)pyridin-2-yl)pyrimidine-4,6-diamine], with “†† (††: 0.37-0.39)”; and `CC(c1ccc(Nc2cc(Nc3ncc(C4COC4)cc3S(C)(=O)=O)ncn2)nc1)N1CC2(COC2)C1` (centres unmarked) [Compound 78, N^4-(5-(1-(2-oxa-6-azaspiro[3.3]heptan-6-yl)ethyl)pyridin-2-yl)-N^6-(3-(methylsulfonyl)-5-(oxetan-3-yl)pyridin-2-yl)pyrimidine-4,6-diamine], with “† (†: < 0.37)”.
For the molecule `CS(=O)(=O)c1ccccc1Nc1cc(Nc2ccc(C(=O)NC3COC3)cn2)ncn1` [Compound 79, 6-((6-((2-(methylsulfonyl)phenyl)amino)pyrimidin-4-yl)amino)-N-(oxetan-3-yl)nicotinamide], the “Ligand Efficiency” value is listed as “†† (††: 0.37-0.39)”.
In the case of `CS(=O)(=O)c1ccccc1Nc1cc(Nc2ccc(NC3COC3)cn2)ncn1` [Compound 80, N^4-(2-(methylsulfonyl)phenyl)-N^6-(5-(oxetan-3-ylamino)pyridin-2-yl) pyrimidine-4,6-diamine] it was “† (†: < 0.37)”.
